What was measured:
D(4) dopamine receptor = molecular target: T1, D(4) dopamine receptor (Homo sapiens, UniProt P21917)
T1 sequence (P21917 whole entry): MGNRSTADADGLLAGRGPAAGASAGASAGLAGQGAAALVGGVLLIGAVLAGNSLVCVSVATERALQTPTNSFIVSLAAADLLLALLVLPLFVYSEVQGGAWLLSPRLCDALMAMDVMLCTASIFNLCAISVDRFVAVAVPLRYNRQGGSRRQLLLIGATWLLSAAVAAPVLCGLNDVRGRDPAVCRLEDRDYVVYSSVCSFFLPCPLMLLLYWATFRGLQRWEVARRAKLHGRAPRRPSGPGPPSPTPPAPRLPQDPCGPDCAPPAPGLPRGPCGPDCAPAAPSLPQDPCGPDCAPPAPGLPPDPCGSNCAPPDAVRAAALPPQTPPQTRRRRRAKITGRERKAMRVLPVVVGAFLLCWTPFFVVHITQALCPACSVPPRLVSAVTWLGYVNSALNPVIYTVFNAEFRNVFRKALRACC

B1 bradykinin receptor = molecular target: T2, B1 bradykinin receptor (Homo sapiens, UniProt P46663)
T2 sequence (P46663 whole entry): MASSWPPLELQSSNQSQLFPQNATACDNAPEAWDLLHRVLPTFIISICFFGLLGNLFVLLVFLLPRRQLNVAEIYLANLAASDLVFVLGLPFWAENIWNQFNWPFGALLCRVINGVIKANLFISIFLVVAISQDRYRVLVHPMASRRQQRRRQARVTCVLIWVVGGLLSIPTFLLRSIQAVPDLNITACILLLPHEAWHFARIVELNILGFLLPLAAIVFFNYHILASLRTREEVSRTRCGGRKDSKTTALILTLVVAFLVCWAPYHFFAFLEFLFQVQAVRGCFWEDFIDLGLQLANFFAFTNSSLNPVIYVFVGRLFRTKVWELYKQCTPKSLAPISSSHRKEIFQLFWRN

[1] = molecular target: Voltage-dependent N-type calcium channel subunit alpha-1B (Rattus norvegicus, UniProt Q02294); type: functional
Vasopressin V2 receptor = Vasopressin V2 receptor (Homo sapiens, UniProt P30518)
[2] = molecular target: T3, Amine oxidase [flavin-containing] A (Homo sapiens, UniProt P21397); type: functional
T3 sequence (P21397 whole entry): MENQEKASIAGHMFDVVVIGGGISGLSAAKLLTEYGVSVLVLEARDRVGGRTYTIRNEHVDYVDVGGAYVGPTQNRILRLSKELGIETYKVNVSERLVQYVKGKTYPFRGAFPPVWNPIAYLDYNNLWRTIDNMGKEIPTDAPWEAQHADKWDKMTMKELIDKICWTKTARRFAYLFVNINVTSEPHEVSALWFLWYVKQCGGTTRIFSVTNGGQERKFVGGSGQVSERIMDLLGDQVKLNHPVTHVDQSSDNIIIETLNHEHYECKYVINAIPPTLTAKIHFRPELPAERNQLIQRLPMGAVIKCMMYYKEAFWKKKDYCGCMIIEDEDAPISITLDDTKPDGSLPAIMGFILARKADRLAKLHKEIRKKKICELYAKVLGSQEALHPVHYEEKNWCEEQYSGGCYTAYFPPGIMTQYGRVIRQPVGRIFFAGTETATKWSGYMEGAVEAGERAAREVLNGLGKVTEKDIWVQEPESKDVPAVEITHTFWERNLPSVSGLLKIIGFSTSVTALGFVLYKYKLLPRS

[3] = molecular target: Prostaglandin G/H synthase 1 (Homo sapiens, UniProt P23219); type: functional
[4] = molecular target: T4, Alpha-2B adrenergic receptor (Homo sapiens, UniProt P18089)
T4 sequence (P18089 whole entry): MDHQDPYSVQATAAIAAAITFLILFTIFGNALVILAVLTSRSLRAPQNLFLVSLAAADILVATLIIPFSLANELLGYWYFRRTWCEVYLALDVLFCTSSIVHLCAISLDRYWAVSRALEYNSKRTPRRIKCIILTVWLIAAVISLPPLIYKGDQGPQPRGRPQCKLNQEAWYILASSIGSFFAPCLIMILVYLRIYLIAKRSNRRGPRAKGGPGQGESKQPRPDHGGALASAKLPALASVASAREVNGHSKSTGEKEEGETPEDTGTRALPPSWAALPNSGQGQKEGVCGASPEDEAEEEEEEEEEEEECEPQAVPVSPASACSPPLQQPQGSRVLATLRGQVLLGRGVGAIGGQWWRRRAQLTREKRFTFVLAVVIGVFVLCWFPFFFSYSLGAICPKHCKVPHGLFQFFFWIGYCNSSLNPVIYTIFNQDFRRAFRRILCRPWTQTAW

[5] = molecular target: cGMP-inhibited 3',5'-cyclic phosphodiesterase 3A (Homo sapiens, UniProt Q14432); type: functional
[6] = molecular target: Sodium-dependent serotonin transporter (Homo sapiens, UniProt P31645)
[7] = molecular target: 5-hydroxytryptamine receptor 2A (Homo sapiens, UniProt P28223); type: functional, cell-based
[8] = molecular target: T5, Alpha-1A adrenergic receptor (Homo sapiens, UniProt P35348); type: functional, cell-based
T5 sequence (P35348 whole entry): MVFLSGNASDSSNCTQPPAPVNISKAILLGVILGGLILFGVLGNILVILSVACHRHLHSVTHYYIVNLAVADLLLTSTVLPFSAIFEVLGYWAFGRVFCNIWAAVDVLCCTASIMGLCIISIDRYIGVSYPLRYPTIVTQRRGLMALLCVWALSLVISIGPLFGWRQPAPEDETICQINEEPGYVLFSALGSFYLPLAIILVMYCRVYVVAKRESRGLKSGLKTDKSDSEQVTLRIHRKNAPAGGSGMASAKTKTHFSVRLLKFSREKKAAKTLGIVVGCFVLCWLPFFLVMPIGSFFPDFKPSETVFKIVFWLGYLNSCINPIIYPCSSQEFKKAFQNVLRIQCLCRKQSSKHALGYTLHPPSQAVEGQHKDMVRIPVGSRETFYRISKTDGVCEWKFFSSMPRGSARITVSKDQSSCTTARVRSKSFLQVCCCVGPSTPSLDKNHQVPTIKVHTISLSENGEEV

[9] = molecular target: Vascular endothelial growth factor receptor 2 (Homo sapiens, UniProt P35968); type: functional
[10] = molecular target: Epidermal growth factor receptor (Homo sapiens, UniProt P00533); type: functional
Note: assay procedure not described here.

Chain of cGMP-inhibited 3',5'-cyclic phosphodiesterase 3A (Q14432 whole entry): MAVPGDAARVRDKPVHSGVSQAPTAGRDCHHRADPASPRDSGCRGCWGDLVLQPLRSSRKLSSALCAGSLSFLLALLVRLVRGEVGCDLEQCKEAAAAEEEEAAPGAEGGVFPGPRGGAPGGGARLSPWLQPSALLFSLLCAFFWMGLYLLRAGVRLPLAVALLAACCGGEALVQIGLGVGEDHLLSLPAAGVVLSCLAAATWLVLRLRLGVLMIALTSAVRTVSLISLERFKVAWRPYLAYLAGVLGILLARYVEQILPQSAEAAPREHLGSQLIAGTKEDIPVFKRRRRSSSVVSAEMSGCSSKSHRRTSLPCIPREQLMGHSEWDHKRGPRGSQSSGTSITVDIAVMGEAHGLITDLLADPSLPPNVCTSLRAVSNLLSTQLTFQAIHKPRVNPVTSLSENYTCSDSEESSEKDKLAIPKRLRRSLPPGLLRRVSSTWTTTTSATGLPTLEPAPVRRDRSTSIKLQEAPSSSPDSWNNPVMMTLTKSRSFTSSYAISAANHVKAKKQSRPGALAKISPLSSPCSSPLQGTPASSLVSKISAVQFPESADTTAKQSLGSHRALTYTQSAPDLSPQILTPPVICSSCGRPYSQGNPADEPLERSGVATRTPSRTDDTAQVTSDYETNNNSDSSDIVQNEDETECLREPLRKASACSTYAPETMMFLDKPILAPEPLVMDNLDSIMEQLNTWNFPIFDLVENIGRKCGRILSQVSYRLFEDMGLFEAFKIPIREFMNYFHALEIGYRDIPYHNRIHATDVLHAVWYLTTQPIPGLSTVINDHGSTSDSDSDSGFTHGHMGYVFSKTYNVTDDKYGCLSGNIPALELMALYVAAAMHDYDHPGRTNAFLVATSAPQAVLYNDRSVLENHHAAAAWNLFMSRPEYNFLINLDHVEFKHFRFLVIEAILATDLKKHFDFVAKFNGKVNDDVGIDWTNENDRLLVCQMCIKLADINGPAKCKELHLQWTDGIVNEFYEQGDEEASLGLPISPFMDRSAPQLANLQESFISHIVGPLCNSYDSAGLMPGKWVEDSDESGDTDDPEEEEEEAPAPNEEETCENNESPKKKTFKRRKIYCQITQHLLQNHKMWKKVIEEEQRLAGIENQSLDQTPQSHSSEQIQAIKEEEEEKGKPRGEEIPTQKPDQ
Chain of Prostaglandin G/H synthase 1 (P23219 whole entry): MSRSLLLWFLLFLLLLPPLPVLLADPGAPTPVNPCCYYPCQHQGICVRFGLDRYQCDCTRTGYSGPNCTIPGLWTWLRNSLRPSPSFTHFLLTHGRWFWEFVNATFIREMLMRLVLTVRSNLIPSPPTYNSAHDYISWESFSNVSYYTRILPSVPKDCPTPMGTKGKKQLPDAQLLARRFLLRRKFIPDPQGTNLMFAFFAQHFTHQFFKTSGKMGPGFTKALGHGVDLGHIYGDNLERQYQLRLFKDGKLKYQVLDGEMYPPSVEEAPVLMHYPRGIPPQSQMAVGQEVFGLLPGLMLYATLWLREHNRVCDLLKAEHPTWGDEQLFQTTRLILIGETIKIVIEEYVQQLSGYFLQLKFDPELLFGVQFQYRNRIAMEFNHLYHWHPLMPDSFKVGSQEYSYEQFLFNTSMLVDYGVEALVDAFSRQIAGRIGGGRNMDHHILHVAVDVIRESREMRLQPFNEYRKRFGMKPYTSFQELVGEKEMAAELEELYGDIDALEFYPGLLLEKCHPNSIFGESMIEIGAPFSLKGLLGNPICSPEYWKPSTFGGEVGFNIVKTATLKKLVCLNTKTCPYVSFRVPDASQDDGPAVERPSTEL
Chain of Vasopressin V2 receptor (P30518 whole entry): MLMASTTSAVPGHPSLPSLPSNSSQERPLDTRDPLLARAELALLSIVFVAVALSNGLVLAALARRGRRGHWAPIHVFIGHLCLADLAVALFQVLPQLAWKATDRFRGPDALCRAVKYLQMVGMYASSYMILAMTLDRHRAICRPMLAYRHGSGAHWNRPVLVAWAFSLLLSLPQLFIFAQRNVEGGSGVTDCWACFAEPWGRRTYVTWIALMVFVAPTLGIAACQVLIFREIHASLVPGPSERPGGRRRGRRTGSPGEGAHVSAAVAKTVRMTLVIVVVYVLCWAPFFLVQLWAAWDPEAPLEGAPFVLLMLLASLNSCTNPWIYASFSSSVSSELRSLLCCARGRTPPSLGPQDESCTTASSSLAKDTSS
Chain of Voltage-dependent N-type calcium channel subunit alpha-1B (Q02294 whole entry): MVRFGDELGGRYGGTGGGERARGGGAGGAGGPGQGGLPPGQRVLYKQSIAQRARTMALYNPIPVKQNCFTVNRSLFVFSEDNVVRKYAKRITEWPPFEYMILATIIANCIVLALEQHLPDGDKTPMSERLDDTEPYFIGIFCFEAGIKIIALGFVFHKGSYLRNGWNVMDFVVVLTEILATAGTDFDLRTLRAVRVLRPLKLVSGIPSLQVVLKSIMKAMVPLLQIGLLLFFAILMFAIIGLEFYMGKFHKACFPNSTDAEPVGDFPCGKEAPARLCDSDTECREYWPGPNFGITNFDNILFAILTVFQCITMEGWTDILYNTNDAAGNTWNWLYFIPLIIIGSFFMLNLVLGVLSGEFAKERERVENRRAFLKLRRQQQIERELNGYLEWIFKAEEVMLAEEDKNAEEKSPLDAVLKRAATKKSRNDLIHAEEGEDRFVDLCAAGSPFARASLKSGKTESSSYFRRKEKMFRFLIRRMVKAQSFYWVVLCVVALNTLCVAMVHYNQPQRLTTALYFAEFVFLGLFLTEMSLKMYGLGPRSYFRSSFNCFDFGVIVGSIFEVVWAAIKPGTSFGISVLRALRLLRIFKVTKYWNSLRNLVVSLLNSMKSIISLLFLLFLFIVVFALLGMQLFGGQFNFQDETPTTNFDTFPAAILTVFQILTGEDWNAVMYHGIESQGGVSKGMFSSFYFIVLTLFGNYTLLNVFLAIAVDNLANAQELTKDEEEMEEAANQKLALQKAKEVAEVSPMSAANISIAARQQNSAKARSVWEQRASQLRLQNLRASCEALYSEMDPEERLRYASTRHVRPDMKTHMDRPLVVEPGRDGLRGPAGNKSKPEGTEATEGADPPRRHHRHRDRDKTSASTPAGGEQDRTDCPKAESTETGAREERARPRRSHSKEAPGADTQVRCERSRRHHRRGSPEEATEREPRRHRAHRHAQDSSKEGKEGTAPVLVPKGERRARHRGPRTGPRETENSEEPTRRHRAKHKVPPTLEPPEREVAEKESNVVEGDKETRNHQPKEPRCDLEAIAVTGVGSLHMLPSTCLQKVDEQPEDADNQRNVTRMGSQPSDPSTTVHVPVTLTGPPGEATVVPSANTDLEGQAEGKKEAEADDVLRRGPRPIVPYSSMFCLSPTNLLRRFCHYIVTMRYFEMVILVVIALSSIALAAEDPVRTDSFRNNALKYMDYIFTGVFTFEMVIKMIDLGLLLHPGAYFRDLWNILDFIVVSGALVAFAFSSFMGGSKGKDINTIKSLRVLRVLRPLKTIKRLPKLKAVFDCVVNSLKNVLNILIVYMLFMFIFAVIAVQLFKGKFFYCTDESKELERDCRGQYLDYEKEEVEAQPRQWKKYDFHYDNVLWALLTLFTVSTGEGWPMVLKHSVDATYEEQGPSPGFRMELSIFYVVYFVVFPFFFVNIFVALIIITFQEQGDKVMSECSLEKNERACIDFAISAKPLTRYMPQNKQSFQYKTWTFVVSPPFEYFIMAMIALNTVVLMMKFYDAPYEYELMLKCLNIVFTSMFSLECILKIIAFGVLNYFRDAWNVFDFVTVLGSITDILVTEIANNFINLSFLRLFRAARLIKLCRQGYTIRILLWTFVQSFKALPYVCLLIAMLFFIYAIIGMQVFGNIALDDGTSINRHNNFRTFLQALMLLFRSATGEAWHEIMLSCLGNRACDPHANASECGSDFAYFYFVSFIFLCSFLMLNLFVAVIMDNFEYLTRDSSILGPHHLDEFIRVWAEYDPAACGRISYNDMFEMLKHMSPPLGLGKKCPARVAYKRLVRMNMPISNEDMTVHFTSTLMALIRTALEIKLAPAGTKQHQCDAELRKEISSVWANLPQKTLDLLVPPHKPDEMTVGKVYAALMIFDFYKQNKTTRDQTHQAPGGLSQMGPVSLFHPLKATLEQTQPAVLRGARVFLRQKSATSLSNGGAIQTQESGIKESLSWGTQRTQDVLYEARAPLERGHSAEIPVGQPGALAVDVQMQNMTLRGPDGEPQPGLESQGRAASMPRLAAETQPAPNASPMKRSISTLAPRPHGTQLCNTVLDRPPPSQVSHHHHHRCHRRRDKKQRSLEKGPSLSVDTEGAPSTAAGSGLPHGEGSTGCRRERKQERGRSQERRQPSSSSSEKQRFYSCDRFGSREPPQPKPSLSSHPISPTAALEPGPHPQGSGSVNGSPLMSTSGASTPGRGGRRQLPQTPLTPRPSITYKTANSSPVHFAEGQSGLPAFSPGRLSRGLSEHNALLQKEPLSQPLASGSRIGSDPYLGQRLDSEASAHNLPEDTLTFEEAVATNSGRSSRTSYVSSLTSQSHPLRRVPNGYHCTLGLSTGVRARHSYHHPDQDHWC
Chain of 5-hydroxytryptamine receptor 2A (P28223 whole entry): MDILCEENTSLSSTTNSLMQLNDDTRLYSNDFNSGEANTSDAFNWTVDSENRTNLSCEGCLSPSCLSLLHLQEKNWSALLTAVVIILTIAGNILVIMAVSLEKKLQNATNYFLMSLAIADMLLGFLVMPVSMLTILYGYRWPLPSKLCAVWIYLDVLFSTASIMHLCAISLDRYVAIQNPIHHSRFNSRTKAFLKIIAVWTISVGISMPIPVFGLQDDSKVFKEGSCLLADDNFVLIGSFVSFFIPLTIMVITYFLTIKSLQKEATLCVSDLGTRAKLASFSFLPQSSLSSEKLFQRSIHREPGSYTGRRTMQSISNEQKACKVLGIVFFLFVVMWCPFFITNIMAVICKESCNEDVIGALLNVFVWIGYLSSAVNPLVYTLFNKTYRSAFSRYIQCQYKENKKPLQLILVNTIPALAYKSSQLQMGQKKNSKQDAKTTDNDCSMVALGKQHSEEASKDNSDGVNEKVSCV

AC50 (D(4) dopamine receptor) [µM]	AC50 (B1 bradykinin receptor) [µM]	AC50 [1] [µM]	SMILES	AC50 (Vasopressin V2 receptor) [µM]	AC50 [2] [µM]	AC50 [3] [µM]	AC50 [4] [µM]	AC50 [5] [µM]	AC50 [6] [µM]	AC50 [7] [µM]	AC50 [8] [µM]	AC50 [9] [µM]	AC50 [10] [µM]
> 10	> 30	> 10	CCOC(=O)[C@H](CCc1ccccc1)N[C@@H](C)C(=O)N1[C@H](C(=O)O)C[C@@H]2CCC[C@@H]21	> 30	–	–	–	–	–	–	–	–	–
–	–	–	C=CCc1ccccc1OCC(O)CNC(C)C (stereo not given) [ALPRENOLOL]	> 30	> 0.3	> 0.3	> 30	> 0.3	11.5	> 30	> 0.3	> 0.3	–
> 10	> 30	> 10	Cc1ccc(-c2cc(C(F)(F)F)nn2-c2ccc(S(N)(=O)=O)cc2)cc1 [CELECOXIB]	> 30	–	–	–	–	–	–	–	–	–
> 10	> 30	> 10	CC1=C(C(=O)O)N2C(=O)[C@@H](NC(=O)[C@H](N)c3ccccc3)[C@H]2SC1 [CEPHALEXIN ANHYDROUS]	> 30	–	–	–	–	–	–	–	–	–
> 10	> 30	> 10	CN(C)CCC(c1ccc(Cl)cc1)c1ccccn1 (stereo not given) [CHLORPHENIRAMINE]	> 30	–	–	–	–	–	–	–	–	–
> 10	> 30	> 10	C[C@]12CCC(=O)C=C1CC[C@@H]1[C@@H]2[C@@H](O)C[C@@]2(C)[C@H]1CC[C@]2(O)C(=O)CO [HYDROCORTISONE]	> 30	–	–	–	–	–	–	–	–	–
–	–	–	CC(C)Nc1ncccn1 [ISAXONINE]	–	> 30	> 30	–	> 30	–	–	> 30	> 30	–
> 10	> 30	> 10	CCC(C)n1ncn(-c2ccc(N3CCN(c4ccc(OCC5COC(Cn6cncn6)(c6ccc(Cl)cc6Cl)O5)cc4)CC3)cc2)c1=O (stereo not given) [ITRACONAZOLE]	> 30	–	–	–	–	–	–	–	–	–
–	–	–	c1ccc([C@H]2CN3CCSC3=N2)cc1 [LEVAMISOLE]	–	–	–	–	–	–	–	–	–	> 30
–	–	–	Cc1cccc(Nc2ccccc2C(=O)O)c1C [MEFENAMIC ACID]	> 10	> 30	0.0115	–	> 30	–	–	> 30	> 30	–
–	–	–	OCCN1C[C@H](O)[C@@H](O)[C@H](O)[C@H]1CO [MIGLITOL]	–	> 30	> 30	–	> 30	–	–	> 30	> 30	–
–	–	–	CC(=O)N[C@@H]1[C@@H](O)[C@H](O)[C@@H](CO)O[C@H]1O [N-ACETYLGLUCOSAMINE]	–	> 30	> 30	–	> 30	–	–	> 30	> 30	–
–	–	–	O=C(CCNNC(=O)c1ccncc1)NCc1ccccc1 [NIALAMIDE]	–	> 30	8.28	–	> 30	–	–	> 30	> 30	–
–	–	–	CC[C@H]1[C@@H](O)[C@@H]2[C@H](CC[C@]3(C)[C@@H]([C@H](C)CCC(=O)O)CC[C@@H]23)[C@@]2(C)CC[C@@H](O)C[C@@H]12 [OBETICHOLIC ACID]	> 30	> 30	> 30	> 30	> 30	> 30	11.5	> 30	> 30	–
–	–	–	CC[N+]1(C)[C@@H]2CC(OC(=O)[C@H](CO)c3ccccc3)C[C@H]1[C@@H]1O[C@@H]12 (stereo not given in full) [OXITROPIUM]	–	> 30	> 30	–	> 30	–	–	> 30	> 30	–
–	–	–	CC(C)(C)NC[C@H](O)COc1ccccc1C1CCCC1 [PENBUTOLOL]	–	> 30	21.1	–	> 30	–	–	2.54	> 30	–
–	–	–	CN(C)S(=O)(=O)c1ccc2c(c1)N(CCCN1CCC(CCO)CC1)c1ccccc1S2 [PIPOTIAZINE]	–	> 30	> 30	–	> 30	–	–	0.0032	> 30	–
–	> 30	> 10	Clc1ccc2nsnc2c1NC1=NCCN1 [TIZANIDINE]	> 30	–	–	0.292	–	–	–	–	–	–
–	–	–	CCOC(=O)[C@H](CCc1ccccc1)N[C@@H](C)C(=O)N1[C@H](C(=O)O)C[C@H]2CCCC[C@@H]21 [TRANDOLAPRIL]	–	> 30	> 30	–	> 30	–	–	> 30	> 30	–

SMILES	AC50 (D(4) dopamine receptor) [µM]	AC50 (B1 bradykinin receptor) [µM]	AC50 [1] [µM]	AC50 (Vasopressin V2 receptor) [µM]	AC50 [2] [µM]	AC50 [3] [µM]	AC50 [4] [µM]	AC50 [5] [µM]	AC50 [6] [µM]	AC50 [7] [µM]	AC50 [8] [µM]	AC50 [9] [µM]	AC50 [10] [µM]
CC[C@H]1OC(=O)[C@H](C)[C@@H](O[C@H]2C[C@@](C)(OC)[C@@H](O)[C@H](C)O2)[C@H](C)[C@@H](O[C@@H]2O[C@H](C)C[C@H](N(C)C)[C@H]2O)[C@](C)(O)C[C@@H](C)CN(C)[C@H](C)[C@@H](O)[C@]1(C)O [AZITHROMYCIN]	> 10	> 30	> 10	> 30	> 30	> 30	–	> 30	–	–	> 30	–	–
CS(=O)(=O)c1ccc(C2=C(c3ccccc3)C(=O)OC2)cc1 [ROFECOXIB]	> 10	> 30	> 10	> 30	> 30	–	–	> 30	–	–	> 30	> 30	–
CO[C@H]1C[C@@H]2CC[C@@H](C)[C@@](O)(O2)C(=O)C(=O)N2CCCC[C@H]2C(=O)O[C@H]([C@H](C)C[C@@H]2CC[C@@H](O)[C@H](OC)C2)CC(=O)[C@H](C)/C=C(\C)[C@@H](O)[C@@H](OC)C(=O)[C@H](C)C[C@H](C)/C=C/C=C/C=C/1C [SIROLIMUS]	–	> 30	> 10	> 30	> 30	23.3	–	> 30	–	–	> 30	> 30	–
Cc1cn([C@H]2C=C[C@@H](CO)O2)c(=O)[nH]c1=O [STAVUDINE]	> 10	> 30	> 10	> 30	> 30	> 30	–	> 30	–	–	> 30	> 30	–
Cc1cn([C@H]2C[C@H](N=[N+]=[N-])[C@@H](CO)O2)c(=O)[nH]c1=O [ZIDOVUDINE]	> 10	> 30	> 10	> 30	> 30	> 30	–	> 30	–	–	> 30	> 30	–

From ChEMBL document CHEMBL5291721, “A preclinical secondary pharmacology resource illuminates target-adverse drug reaction associations of marketed drugs” (Nat Commun, 2023)
